Laboratory results from US20120207763A1, “PYRROLOPYRIMIDINE COMPOUNDS AND THEIR USES” (ASTEX THERAPEUTICS LIMITED, priority 2006, published 2012).
Several values for one entry are separate records, joined by “and”; a condition that tells them apart may be missing. Identical values can stand only once.

What was measured:
Type in all cases: biochemical
[1] = molecular target: CDK2/Cyclin-A kinase complex (Homo sapiens, UniProt P24941); assay: CDK2 IMAP fluorescence polarization assay; details: Table E; read-out: CDK2cyA IMAP/IC50 [umol l − 1]
Summary of the method: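 Fluorescence polarization (IMAP) using purified active CDK2/Cyclin-A complex with a TAMRA-tagged Histone H1-derived peptide substrate; phosphorylated peptide bound by a metal-containing reagent raises polarization. Inhibition read as reduced fluorescence polarization signal.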

[2] = molecular target: CDK4 (Homo sapiens, UniProt P11802); assay: CDK4 HTRF assay; details: Table E; read-out: CDK4 HTRF/IC50 [umol l − 1]
Chain of CDK4 (P11802 whole entry): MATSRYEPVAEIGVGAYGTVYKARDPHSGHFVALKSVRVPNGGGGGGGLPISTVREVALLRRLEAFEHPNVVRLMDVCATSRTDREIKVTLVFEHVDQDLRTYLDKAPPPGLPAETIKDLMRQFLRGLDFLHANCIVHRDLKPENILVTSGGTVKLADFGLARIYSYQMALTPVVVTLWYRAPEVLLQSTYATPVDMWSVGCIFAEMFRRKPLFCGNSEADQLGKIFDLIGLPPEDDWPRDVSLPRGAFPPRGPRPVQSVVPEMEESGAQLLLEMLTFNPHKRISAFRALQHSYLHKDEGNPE
Chain of CDK4 (P24385 whole entry partner): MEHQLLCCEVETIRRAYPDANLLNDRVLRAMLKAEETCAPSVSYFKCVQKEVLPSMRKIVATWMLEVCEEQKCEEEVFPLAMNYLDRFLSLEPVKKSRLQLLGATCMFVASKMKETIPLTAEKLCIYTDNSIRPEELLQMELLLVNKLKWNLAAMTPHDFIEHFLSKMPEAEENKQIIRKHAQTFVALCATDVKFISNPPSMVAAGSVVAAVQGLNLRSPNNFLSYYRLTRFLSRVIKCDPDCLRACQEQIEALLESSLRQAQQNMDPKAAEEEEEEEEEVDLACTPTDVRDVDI

[3] = molecular target: hCDK1/B (Homo sapiens, UniProt P06493); assay: hCDK1/B assay; details: Table E; read-out: hCDK1/B/IC50 [umol l − 1]
Chain of hCDK1/B (P06493 whole entry): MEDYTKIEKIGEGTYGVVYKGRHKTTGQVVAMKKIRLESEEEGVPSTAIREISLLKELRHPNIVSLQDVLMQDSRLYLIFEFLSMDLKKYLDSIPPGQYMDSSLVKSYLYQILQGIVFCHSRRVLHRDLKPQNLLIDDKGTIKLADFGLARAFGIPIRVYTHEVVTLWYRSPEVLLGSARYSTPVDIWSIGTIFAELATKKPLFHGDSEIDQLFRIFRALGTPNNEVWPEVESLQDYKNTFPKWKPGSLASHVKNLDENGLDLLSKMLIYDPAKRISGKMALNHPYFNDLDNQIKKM
Chain of hCDK1/B (P14635 whole entry partner): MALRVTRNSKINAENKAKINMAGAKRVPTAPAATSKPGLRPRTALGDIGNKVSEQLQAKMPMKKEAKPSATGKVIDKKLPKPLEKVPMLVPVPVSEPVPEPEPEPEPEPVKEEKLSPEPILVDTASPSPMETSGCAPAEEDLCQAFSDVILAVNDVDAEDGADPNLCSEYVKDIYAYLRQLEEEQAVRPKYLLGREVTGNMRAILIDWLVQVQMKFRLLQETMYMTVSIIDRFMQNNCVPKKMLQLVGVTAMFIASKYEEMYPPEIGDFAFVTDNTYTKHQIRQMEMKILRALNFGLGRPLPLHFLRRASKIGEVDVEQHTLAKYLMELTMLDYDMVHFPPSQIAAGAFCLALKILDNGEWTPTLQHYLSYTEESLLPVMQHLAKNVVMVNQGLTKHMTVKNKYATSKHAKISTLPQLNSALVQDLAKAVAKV

Structure (SMILES)	IC50 [1] [µM]	IC50 [2]	IC50 [3] [µM]
Cc1c(-c2cnco2)n(C2CCCC2)c2nc(Nc3ccc(CN4CCNCC4)cn3)ncc12 [Example 403]	< 10	< 1 µM	< 10
CC(=O)N1CCN(c2ccc(Nc3ncc4ccn(C5CCC(C)C5)c4n3)cc2)CC1 (stereo not shown) [Example 238]	< 10	< 1 µM	< 10
CN(C)C(=O)c1cc2cnc(Nc3ccc(C4CCNCC4)cc3)nc2n1C1CCCC1 [Example 341]	> 10	< 1 µM	< 10
Cc1c(-c2cnco2)n(C2CCCC2)c2nc(Nc3ccc(CN4CCOCC4)cc3)ncc12 [Example 401]	< 1	< 1 µM	< 1
Cc1cn(C2CCC(O)C2)c2nc(Nc3ccc(CN4CCNCC4)cc3)ncc12 (stereo not shown) [Example 316]	< 1	< 1 µM	< 10
Cc1c(-c2cnco2)n(C2CCCC2)c2nc(Nc3ccc(CN4CCNCC4)cc3)ncc12 [Example 402]	< 1	< 1 µM	< 1
Cc1cn(C2CCCC2)c2nc(Nc3ccccc3)ncc12 [Example 277]	> 10	> 10 µM	> 10
Cc1cn(C2CCCC2)c2nc(Nc3ccc(CN4CCNCC4)cc3)ncc12 [Example 314]	< 10	< 1 µM	< 10
CCC(CC)n1c(CNCc2ccco2)cc2cnc(Nc3ccc(N4CCN(C(C)=O)CC4)cc3)nc21 [Example 449]	< 10		< 10
CN(C)C(=O)c1cc2cnc(Nc3ccc(CN4CCOCC4)cc3)nc2n1C1CCCC1 [Example 340]	< 10	< 1 µM	< 10
CCC(CC)n1c(C(=O)Nc2cccnc2)cc2cnc(Nc3ccc(N4CCNCC4)cc3)nc21 [Example 352]	> 10	< 1 µM	< 10
CN(C)C(=O)c1cc2cnc(NCc3ccc(N4CCNCC4)cc3)nc2n1C1CCCC1 [Example 467]	> 15		> 15
CN(C)C(=O)c1cc2cnc(NCc3ccc(N4CCN(C(=O)OC(C)(C)C)CC4)cc3)nc2n1C1CCCC1 [Example 468]	> 15	> 10 µM	> 15
c1cc(N2CCNCC2)ccc1Nc1ncc2ccn(C3CCCCCC3)c2n1 [Example 232]		> 10 µM and < 1 µM	> 10
CCC(CC)n1c(C(=O)Nc2ccc(C(C)(C)C)cc2)cc2cnc(Nc3ccc(N4CCNCC4)cc3)nc21 [Example 349]	> 15		> 15
Cc1cn(C2CCCC2)c2nc(Nc3ccc(CN4CCOCC4)cc3)ncc12 [Example 313]	< 10	< 1 µM	< 10
Cc1cn(C2CCCC2)c2nc(Nc3ccc(N4CCNCC4)cc3)ncc12 [Example 266]		< 1 µM	< 10
CCC(CC)n1c(C(=O)N(C)C)cc2cnc(Nc3ccc(CN4CCN(C(=O)OC(C)(C)C)CC4)cc3)nc21 [Example 465]	< 10	< 1 µM	< 10
CCC(CC)n1c(C(=O)Nc2ccncc2)cc2cnc(Nc3ccc(N4CCNCC4)cc3)nc21 [Example 353]	> 15	< 1 µM	> 15
Cc1n[nH]c(-c2c(C)c3cnc(Nc4ccc(N5CCNCC5)cn4)nc3n2C2CCCC2)n1 [Example 406]	> 10	< 1 µM	> 10
CCC(CC)n1c(CNc2ccon2)cc2cnc(Nc3ccc(N4CCN(C(C)=O)CC4)cc3)nc21 [Example 371]	< 10		< 1
CCC(CC)n1c(CNc2cc(C)[nH]n2)cc2cnc(Nc3ccc(N4CCN(C(C)=O)CC4)cc3)nc21 [Example 372]	< 1		< 10
Cc1cn(C2CCCC2)c2nc(Nc3ccc(-n4ccnc4)cc3)ncc12 [Example 312]	< 10		< 10
Cc1c(C#N)n(C2CCCC2)c2nc(Nc3ccc(N4CCC(N(C)C)CC4)cc3)ncc12 [Example 395]	< 1	< 1 µM	< 1
CCC(CC)n1c(C(=O)Nc2cccc(C(C)(C)C)c2)cc2cnc(Nc3ccc(N4CCNCC4)cc3)nc21 [Example 358]	> 15	< 1 µM	> 15
Cc1c(-c2cnco2)n(C2CCCC2)c2nc(Nc3ccc(N4CCNCC4)cc3)ncc12 [Example 398]	< 1	< 1 µM	< 1
Cc1cn(C2CCCC2)c2nc(Nc3ccc(N(C)C)cc3)ncc12 [Example 311]	> 10		> 10
Cc1cn(C2CCCC2)c2nc(Nc3ccc(CO)cc3)ncc12 [Example 466]	< 10		< 10
CCC(CC)n1c(C(=O)Nc2ccc(CN3CCN(C)CC3)cc2)cc2cnc(Nc3ccc(N4CCNCC4)cc3)nc21 [Example 354]	> 15		> 15
